Our source for the Activity, inhibition and IC50 values is ChEMBL document CHEMBL3763080, “Design and synthesis of a C7-aryl piperlongumine derivative with potent antimicrotubule and mutant p53-reactivating properties” (Eur J Med Chem, 2016).

In general, pIC50 refers to the IC50 on a negative log10 scale, so that one unit is a factor of ten.

Experiment [1] relates to Cellular tumor antigen p53 (Homo sapiens), P04637 [R175H]. Briefly: Reactivation of human p53 R175H mutant in human SKBR3 cells assessed as cell cycle arrest at G2/M phase at 2.5 uM after 24 hrs by propidium iodide staining based flow cytometric analysis. Particulars: SK-BR-3.
Experiment [2] has the same test system. Briefly: Reactivation of human p53 R175H mutant in human SKBR3 cells assessed as upregulation of Aurora kinase A expression at 2.5 uM after 24 hrs by Western blot analysis. The format is cell-based. Particulars: SK-BR-3.
The target in experiment [3] is Tubulin (Bos taurus) (UniProt Q6B856+Q862L2+Q862F3). Briefly: Inhibition of bovine brain tubulin polymerization measured every 1 min for 30 mins by fluorescence assay.
The subject of experiment [4] is Cellular tumor antigen p53 (Homo sapiens), P04637 [R175H]. Briefly: Reactivation of human p53 R175H mutant in human SKBR3 cells assessed as increase in wild type p53 expression after 12 hrs by immunoprecipitation/Western blot analysis. The format is cell-based. Particulars: SK-BR-3. A general note: In western blotting, separated proteins are transferred to a membrane and probed.

The test system is the same in experiment [5]. Kind of experiment: Reactivation of human p53 R175H mutant in SKBR3 cells assessed as increase in p53 DNA binding at 5 uM by non biotinylated double stranded DNA probe-based electrophoretic-mobility shift assay. The experiment is classed as cell-based. Particulars: SK-BR-3.
For experiment [6] the test system is unchanged. Kind of experiment: Reactivation of p53 R175H mutant in human SKBR3 cells at 5 uM after 12 hrs by flow cytometric analysis. The experiment is classed as cell-based. Particulars: SK-BR-3. On the technique in general: Flow cytometry measures light scatter and fluorescence of single cells or particles in a stream.
The test system is the same in experiment [7]. Kind of experiment: Reactivation of human p53 R175H mutant in human SKBR3 cells assessed as upregulation of MDM2 expression after 24 hrs by Western blot analysis. The experiment is classed as cell-based. Particulars: SK-BR-3.
Experiment [8] has the same test system. Briefly: Reactivation of p53 R175H mutant in human SKBR3 cells assessed as accumulation of wild type p53 at 5 uM after 12 hrs by DAPI staining based confocal/multiphoton microscopic analysis. The format is cell-based. Particulars: SK-BR-3.
Experiment [9] shares this test system. Briefly: Reactivation of human p53 R175H mutant in human SKBR3 cells assessed as upregulation of PUMA expression after 24 hrs by Western blot analysis. The experiment is classed as cell-based. Particulars: SK-BR-3.
Experiment [10] has the same test system. Kind of experiment: Reactivation of human p53 R175H mutant in human SKBR3 cells assessed as downregulation of CDC25C expression at 2.5 uM after 24 hrs by Western blot analysis. The experiment is classed as cell-based. Particulars: SK-BR-3.
Experiment [11] shares this test system. Kind of experiment: Reactivation of human p53 R175H mutant in SKBR3 cells assessed as increase in p53 DNA binding at 5 uM by biotinylated double stranded DNA probe-based electrophoretic-mobility shift assay. Particulars: SK-BR-3. The format is cell-based.
The test system is the same in experiment [12]. Briefly: Reactivation of human p53 R175H mutant in human SKBR3 cells assessed as decrease in mutant p53 expression after 12 hrs by immunoprecipitation/Western blot analysis. The format is cell-based. On the set-up: scale not given: the % may be the effect or the level left. Particulars: SK-BR-3.
The test system is the same in experiment [13]. Kind of experiment: Reactivation of human p53 R175H mutant in human SKBR3 cells assessed as upregulation of p21cip1 expression after 24 hrs by Western blot analysis. The format is cell-based. Particulars: SK-BR-3.
For experiment [14] the test system is unchanged. Briefly: Reactivation of human p53 R175H mutant in human SKBR3 cells assessed as upregulation of cyclin B1 expression at 2.5 uM after 24 hrs by Western blot analysis. The format is cell-based. Particulars: SK-BR-3.
The subject of experiment [15] is SK-BR-3. Kind of experiment: Induction of microtubule destabilization in human SKBR3 cells assessed as soluble fraction of protein at 2.5 uM after 24 hrs by Western blot analysis. The experiment is classed as cell-based.
Experiment [16] in a line: Cytotoxicity against human SKBR3 cells assessed as cell viability after 72 hrs by resazurin reduction assay. The format is functional, cell-based. Particulars: SK-BR-3, 72 h.
For experiment [17], the system named is HT-29. Kind of experiment: Cytotoxicity against human HT-29 cells assessed as cell viability after 72 hrs by resazurin reduction assay. The format is functional, cell-based. Particulars: HT-29, 72 h. A general note: Resazurin is reduced to fluorescent resorufin, in cell work by metabolically active cells.
In experiment [18] the test system is A549. Kind of experiment: Cytotoxicity against human A549 cells assessed as cell viability after 72 hrs by resazurin reduction assay. The format is functional, cell-based. Particulars: A549, 72 h.
A short description of experiment [19]: Cytotoxicity against human SF188 cells assessed as cell viability after 72 hrs by resazurin reduction assay. The format is functional, cell-based. Particulars: SF-188, 72 h.
Experiment [20] in a line: Cytotoxicity against human GBM10 cells assessed as cell viability after 72 hrs by resazurin reduction assay. The experiment is classed as functional, cell-based. Particulars: GBM10, 72 h.
Experiment [21] in a line: Cytotoxicity against human HT1080 cells assessed as cell viability after 72 hrs by resazurin reduction assay. The format is functional, cell-based. Particulars: HT-1080, 72 h.
For experiment [22], the system named is T98G. Briefly: Cytotoxicity against human T98G cells assessed as cell viability after 72 hrs by resazurin reduction assay. The experiment is classed as functional, cell-based.
In experiment [23] the test system is MCF7. Kind of experiment: Cytotoxicity against human MCF7 cells assessed as cell viability after 72 hrs by resazurin reduction assay. Particulars: MCF7, 72 h. The format is functional, cell-based.

The structures appear in SMILES notation. pIC50: −log10 of the molar value. Active and inactive are the calls of the source. The rule behind the calls is not given here.

Take `COc1ccc(/C(=C\c2cc(OC)c(OC)c(OC)c2)C(=O)N2CCC=CC2=O)cc1`: the Activity in [1] is above 60%; in experiment [4] it was 80%; in experiment [7], “Dose-dependent effect”; in experiment [9] it was “Dose-dependent effect”; in [12], 90%; in experiment [13] it was “Dose-dependent effect”. Also, the result in experiment [2], in experiment [6], in experiment [8], in [10], in experiment [11] and in experiment [14] was Active. In [3], the inhibition entry was “Dose-dependent effect”. Besides, the result in [5] was inactive.

Turning to `COC(=O)Nc1nc2cc(C(=O)c3cccs3)ccc2[nH]1`, the outcome in experiment [15] was Active.

Take `COc1ccc(/C=C\c2cc(OC)c(OC)c(OC)c2)cc1O` [COMBRETASTATIN A4]: in experiment [3], the inhibition entry is “Dose-dependent effect”. The pIC50 in [16] was 8.10; in experiment [17] it was 6.38; in experiment [18], 8.52; in experiment [19] it was 7.68; in [20], 7.28; in experiment [21], 7.15. Besides, the pIC50 in [22] is 7.96; in experiment [23], 7.38.

On to `COc1cc(/C=C/C(=O)N2CCC=CC2=O)cc(OC)c1OC` [PIPLARTINE], for which the pIC50 in experiment [16] is 5.39; in [17], 5.26; in experiment [18], 5.18; in [19], 5.41; in experiment [20], 5.42; in experiment [21], 5.46. The values for the negative-log IC50 (pIC50) in experiment [22] and in experiment [23] were 5.31 and 5.21, respectively.
